This is an account of results in patent US20130052259A1, “LIPOSOMES COMPRISING AMPHIPATHIC DRUGS AND METHOD FOR THEIR PREPARATION” (priority 2010, published 2013).

One data set is described as follows: in vivo. The following applies: nude, mouse, plasma, iv.
Data set [1] can be described thus: Physicochemical properties of VCR and TPT. An excerpt: The need to develop one liposome that includes two drugs at a specific predefined mole ratio required optimization of the loading conditions and “crosstalk” with the drugs. For this, physiochemical characterization of the two drugs is required.
Data set [2] is described as follows: Pharmacokinetics in tumor-bearing nude mice after i.v. administration. The following applies: eight hours post injection, based on AUC value.
Data set [3] can be described thus: Maximum tolerated dose (MTD). Further details: species or system mice. The following applies: mouse, in vivo; ≦15% body weight loss nadir lasting ≦2 days. As to the method:
The MTD is determined in clinical trials by testing increasing doses on different groups of people until the highest dose with acceptable side effects is found. For each drug, the MTD as determined in clinical trials is then available via publicly available sources such as SciFinder which is the On Line search engine of The American Chemical Society for various information including MTD (in animals as well as in humans). […] In this context, the “MTD ratio” between two drugs is the ratio between the MTD determined for each drug.
Tumor volume, survival, and body weight were monitored 2-3 times per week.

Data set [4] in a line: In vitro release of drugs from nanoliposomes in adult bovine serum at 37° C. In kind it is in vitro ADME. The following applies: drug encapsulated in nSSL. As for the experimental part: For studying the effect of biological fluids, drug loaded nSSLs were incubated up to 96 h at 37° C. in adult bovine serum (Biological Industries, Beit Haemek, Israel).
For data set [5], the system named is Daoy medulloblastoma cells. In words: MTT cytotoxicity and median-effect (CI) analysis, Daoy.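 As to all read-outs here: drugs applied at fixed ratios over eight concentrations for 72 h, survival expressed against untreated control wells, affected fraction (fa) derived per well.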 To be noted: for Fractional kill (fa): 72 h MTT; for Dx (Dx1, Dx2, Dx12: dose for effect level fa): doses of Table 1 (ng/ml).
Experimental: Human medulloblastoma (Daoy) cells, colon cancer (SW480) cells and neuroblastoma (NB-EB) cells were exposed to fixed ratios at eight concentrations of drugs for 72 hours along the profile of the most cytotoxic drug. Viable cells were quantified using standard MTT assay (T. Mosmann, Rapid colorimetric assay for cellular growth and survival: application to proliferation and cytotoxicity assays. J Immunol Methods 65(1-2) (1983) 55-63).
Test data were converted to a percentage mean cell survival value relative to untreated control wells. The fraction of affected cells (fa) was subsequently determined for each well.
The median effect analysis uses the combination index (CI) value as a quantitative indicator of the degree of synergy or antagonism. Using this analysis method, CI=1.0 reflects additive activity, CI>1 signifies antagonism, and CI<1.0 indicates synergy.
Firstly, in vitro cytotoxicity of VCR, TPT and their combinations was evaluated using the median-effect analysis of Chou et al [T. C. […] The selection of this drug interaction analysis method was based on its suitability for assessing whether drugs interact synergistically (CI<1.0), additively (CI f 1.0), or antagonistically (CI>1.0) as a function of drug concentration for different fixed drug/drug ratios.
Another data set deals with SW480 (colon) tumors. The experiment in a line: Efficacy against SW480 (colon) tumors in nude mice, Kaplan-Meier. The following applies: SW480 tumors s.c., i.v. at days 17, 23 and 29.

≈ marks a conversion by molar mass, not a printed value.

Experimental for SW480 (colon) tumors: Nine mice were treated in each group. All mice received injections through the tail vain at days 17, 23 and 29.
Approximately 4 million Daoy and SW480 tumor cells were inoculated subcutaneously (s.c.) in the back of 5 weeks old NUDE-Hsd:Athymic mice. Tumor weights were determined according to the equation (length×width^2)/2 using direct caliper measurements (D. M. Euhus, C. Hudd, M. C. LaRegina, F. E. Johnson, Tumor measurement in the nude mouse. J Surg Oncol 31(4) (1986) 229-234; M. M. Tomayko, C. P. Reynolds, Determination of subcutaneous tumor size in athymic (nude) mice. Cancer Chemother Pharmacol 24(3) (1989) 148-154).
The statistical significance between different treatment groups was determined using Mood's median test [A. M. Mood, Introduction to the theory of statistics, McGraw-Hill, New York, 1950.].

Consider `CC[C@@]1(O)C(=O)OCc2c1cc1n(c2=O)Cc2cc3c(CN(C)C)c(O)ccc3nc2-1` [Topotecan (TPT), Topotecan], for which, in the data set “in vivo”, the AUC was determined as 2700 ± 910 ng·h/mL, the peak level (Cmax) was 3980 ± 1040 ng/mL, the MRT was found to be 0.6 ± 0.07 h and the clearance is 1.28 mL/min. Moreover, the half-life in the data set “in vivo” is 1.03 h. Further, in data set [1], the “Non-polar/polar surface area ratio” value is recorded as 2.81 and the pKa is 7.65. The compound further had a solubility in data set [1] (pH 6, aqueous buffer) of 3600 µM (≈ 1520 µg/mL). The same compound returned a solubility in data set [1] (pH 8, aqueous buffer) of 200 µM (≈ 84.3 µg/mL). The “lactone ratio of TPT” value in data set [2] was 9%.

For `CC[C@]1(O)C[C@H]2CN(CCc3c([nH]c4ccccc34)[C@@](C(=O)OC)(c3cc4c(cc3OC)N(C=O)[C@H]3[C@@](O)(C(=O)OC)[C@H](OC(C)=O)[C@]5(CC)C=CCN6CC[C@]43[C@@H]65)C2)C1` [Vincristine (VCR), Vincristine], the MTD in data set [3] is 1.5 mg/kg. The compound further showed an AUC in “in vivo” of 2510 ± 460 ng·h/mL. Besides, in the data set “in vivo”, the highest concentration (Cmax) was determined as 1370 ± 340 ng/mL. Further, in the data set “in vivo”, the MRT stood at 1.73 ± 0.3 h. In the data set “in vivo”, this compound had a clearance of 0.273 mL/min. In “in vivo”, this compound had a half-life of 2.09 h. Further, the release kinetics order result in data set [4] is “zero-order kinetics”. In data set [1], this compound showed a logP of 2.97. In data set [1], this compound displayed a pKa of 7.64. Further, the results for the logD in data set [1] (pH 6) and in data set [1] (pH 8) were 1.2 and 2.81, respectively. Also, the solubility is 300 µM (≈ 247 µg/mL) in data set [1] (pH 6, aqueous buffer) and 10 µM (≈ 8.25 µg/mL) in data set [1] (pH 8, aqueous buffer). The “m (slope, Hill-type coefficient of the dose-effect curve)” value in data set [5] (Daoy cells) was “m: 1.926”. Also, the IC50 in data set [5] (Homo sapiens, Daoy, read-out: Dm (dose required to produce the median-effect)) worked out at 5.51 ng/mL (≈ 6.67 nM). In addition, the “Log [1/(1/fa − 1)]” value in data set [5] (dose 1 ng/ml) is on record as −1.43; in data set [5] (dose 2 ng/ml) it was −0.93; in data set [5] (dose 4 ng/ml), −0.36; in data set [5] (dose 8 ng/ml), 0.65; in data set [5] (dose 24 ng/ml) it was 1.07. In addition, the “Fractional kill (fa)” value in data set [5] (dose 1 ng/ml) amounted to 0.04; in data set [5] (dose 2 ng/ml) it was 0.11; in data set [5] (dose 4 ng/ml), 0.30; in data set [5] (dose 8 ng/ml), 0.82; in data set [5] (dose 24 ng/ml), 0.92. In addition, the “Dx (Dx1, Dx2, Dx12: dose for effect level fa)” value (shortened to “Dx”) in data set [5] (fa 0.1) is on record as 1.76; in data set [5] (fa 0.2) it was 2.68; in data set [5] (fa 0.3), 3.55; in data set [5] (fa 0.4), 4.46; in data set [5] (fa 0.5) it was 5.50; in data set [5] (fa 0.6), 6.79. Also, the “Dx” value in data set [5] (fa 0.7) was 8.55; in data set [5] (fa 0.8), 11.31; in data set [5] (fa 0.9) it was 17.22.

Take Topotecan [Topotecan (TPT)]: in data set [4], the release kinetics order entry is on record as “first-order kinetics followed by zero-order kinetics”. For the same compound, the “therapeutic efficacy (Kaplan-Meier, tumor ≧1000 mg as endpoint)” value in the data set with SW480 (colon) tumors (listed as Free TPT) is “inferior to the liposomal formulations”; with SW480 (colon) tumors (listed as free TPT), “more efficacious for colon cancer”. Also, the “m (slope, Hill-type coefficient of the dose-effect curve)” value in data set [5] (Daoy cells) is recorded as “m: 1.663”. The “Dm (dose required to produce the median-effect)” value in data set [5] (Daoy cells, […]) is “Dm: 81.23 ng/ml”. In addition, the “Log [1/(1/fa − 1)]” value is listed as −0.64 in data set [5] (dose 40 ng/ml); −0.08 in data set [5] (dose 60 ng/ml); 0.04 in data set [5] (dose 80 ng/ml); 0.59 in data set [5] (dose 200 ng/ml); 1.15 in data set [5] (dose 400 ng/ml). Also, the “Fractional kill (fa)” value in data set [5] (dose 40 ng/ml) is 0.18; in data set [5] (dose 60 ng/ml), 0.46; in data set [5] (dose 80 ng/ml) it was 0.52; in data set [5] (dose 200 ng/ml) it was 0.80; in data set [5] (dose 400 ng/ml), 0.93. The “Dx” value is 21.67 in data set [5] (fa 0.1); 35.29 in data set [5] (fa 0.2); 48.80 in data set [5] (fa 0.3); 63.65 in data set [5] (fa 0.4); 81.23 in data set [5] (fa 0.5); 103.66 in data set [5] (fa 0.6). The “Dx” value in data set [5] (fa 0.7) worked out at 135.22; in data set [5] (fa 0.8), 186.99; in data set [5] (fa 0.9) it was 304.53.

A word on the AUC: it is concentration integrated over time. A high value points to more exposure. The Cmax is the highest concentration seen after dosing. In general, MRT refers to a mean duration of stay, worked out from the concentration-time curve. By clearance is commonly meant a measure of how efficiently the substance is removed, as volume per time. The low end stands for inefficient removal, the high end for efficient removal. The half-life is the time in which the quantity being followed falls by half. A lower half-life goes with rapid decline. In general, pKa refers to the pH at which an ionisable group is half protonated. What is called solubility is the concentration that dissolves in the medium under given conditions. Lower therefore signals a poorly soluble substance. What is called MTD is the highest dose tested that stayed within the study's limit of toxicity. The logP is a log measure of how a compound divides between an organic and an aqueous phase. As usually defined, the logD is lipophilicity at a set pH, counting ionised and neutral species. Lower therefore signals lower lipophilicity.
